# Like-named read-outs stand apart in the source and are kept apart here.
# System: FD (familial dysautomonia) IKBKAP minigene, exon 20 inclusion, in HEK293T cells
# Experiment: Primary splicing assay (FD IKBKAP minigene, Firefly/Renilla luciferase reporter in HEK293T)
# Type: cell-based, human
# Conditions: for EC (maximum kinetin efficacy) / Emax: Homo sapiens, HEK-293T; for EC (maximum kinetin efficacy): HEK293T, read-out: ECk (compound concentration at which the maximum kinetin efficacy (200 μM) is reached)
# Protocol: As used herein, the expression “ECk” refers to the compound concentration at which the maximum kinetin efficacy (200 μM) is reached.
# Splicing analysis was made possible by using an FD (familial dysautomonia) IKBKAP minigene which contained exon 19 through exon 21, including intervening introns, and also the T→C Thymine to cytosine transition located 6 base-pairs from the end of IKBKAP exon 20; See SEQ ID NO:3 for the complete sequence of plasmid pcDNA3.1/V5HisTOPO with Renilla-Familial Dysautonomia minigene-Firefly. Firefly luciferase (SEQ ID NO:14) was utilized as a splicing reporter, located downstream of exon 21, and Renilla luciferase (SEQ ID NO:13) was used as a control, located upstream of exon 19. The sequence of exon 19 is presented as SEQ ID NO:7; the Intron between Exon 19 and Exon 20 is SEQ ID NO:8; exon 20 is SEQ ID NO:9; the intron between […]; exon 21 is SEQ ID NO: 11, and the spliced sequence of exons 19-20-21 is SEQ ID NO:12. HEK293T cells were plated in a 6-well plate 24 hours prior to transfection. Transfection was carried out using a mixture of Opti-MEM (GIBCO ref. 31985), IKBKAP minigene, and Fugene HID (PROMEGA ref. E2311), incubated in DMEM media containing HEK293T cells at 37° C. The ratio of Opti-MEM, minigene, and Fugene was kept at approximately 9:1.5:1, with a total volume of 150 μL of transfection mixture applied per well.
# After 4 hours of transfection, the cells were then plated in a 96-well plate coated with poly-L-lysine (SIGMA cat.P4707) for treatment scheduled 24 hours later. […] After 24 hours of treatment, cells were washed in the poly-L-lysine coated 96-well plate using PBS and subsequently harvested using Passive Lysis Buffer (Promega cat.E196). Cell lysate was transferred to a black and white 96-well plate and analyzed for splicing correction using a Glomax luminometer (PROMEGA GloMax® 96 Microplate Luminometer w/Dual Injectors cat.E6521) and Promega Dual Glo Firefly and Stop and Glo Renilla reagents (Cat.E196). The compound's ability to correct splicing and promote exon 20 inclusion was marked by an increase in Firefly signal. Renilla signal, which is independent of exon 20 inclusion, was used to correct for cell number. Using the ratio of Firefly to Renilla signal, a dose response curve was produced, which referenced kinetin and DMSO Firefly/Renilla ratios as positive and negative controls, respectively.
# [1] = Firefly/Renilla ratio, 24 hours of treatment
# [2] = max efficacy in Primary Assay, Firefly/Renilla ratio, kinetin and DMSO as positive and negative controls, 24 hours of treatment, read-out: Emax (%)
# [3] = max efficacy, value marked (RT-PCR), footnote a: Firefly inhibitor, read-out: Emax (%) (RT-PCR)
SMILES,EC (maximum kinetin efficacy) [1] [µM],Emax [2] [%],Emax [3] [%],"ECk (RT-PCR) (determined by RT-PCR, footnote a Firefly inhibitor, footnote b Renilla interference) [µM]"
CCOc1nc2c(NCc3nccs3)nc(Cl)nc2[nH]1 [(260)],3.43,130,,
CCCCOc1nc2c(NCc3ccco3)nc(Cl)nc2[nH]1 [(311)],0.56,221,,
OC1CN(c2nc3c(NCc4ccco4)nc(Cl)nc3[nH]2)C1 [(104)],12,246,,
FC(F)(F)CCOc1nc2c(NCc3nccs3)nc(Cl)nc2[nH]1 [(391)],1.02,193,,
CN(C)c1nc2c(NCc3ccco3)nc(Cl)nc2[nH]1 [(118)],10.5,112,,
Clc1nc(NCc2nccs2)c2c(Cl)c[nH]c2n1 [(208)],107,83,,
C[C@@H](C#N)n1ccc2c(NCc3ccco3)nc(Cl)nc21 [(216)],,16,,
Clc1nc(NCc2ccncc2)c2nc(OCC3CCCC3)[nH]c2n1 [(334)],0.87,177,,
Clc1nc(NCc2ccco2)c2nc(OCCC3CC3)[nH]c2n1 [(489)],1.21,131,,
FCCn1ccc2c(NCc3ccco3)nc(Cl)nc21 [(150)],,,320,1 to 10
O=C1OCCN1CCOc1nc2c(NCc3nccs3)nc(Cl)nc2[nH]1 [(394)],,4.8,,
Clc1nc(NCc2ccco2)c2nc(OCC3CCCC3)[nH]c2n1 [(338)],1.1,222,,
COCc1c[nH]c2nc(Cl)nc(NCc3ccco3)c12 [(158)],13.4,20,,
OCCn1cnc2c(NCc3ccco3)cc(Cl)nc21 [(254)],13.2,145,,
O=C(c1c[nH]c2nc(Cl)nc(NCc3ccco3)c12)N1CCCC1 [(168)],,54,,
Clc1nc(NCc2ccco2)c2c(-c3ccccc3)c[nH]c2n1 [(86)],,29,,
O[C@@H]1C=C[C@H](n2ccc3c(NCc4ccco4)nc(Cl)nc32)C1 [(139)],,,52.2,
CC(C)(C)OC(=O)N1CC(Oc2nc3c(NCc4ccncc4)nc(Cl)nc3[nH]2)C1 [(327)],4.64,145,,
CNC(=O)c1nc2c(NCc3ccco3)nc(Cl)nc2[nH]1 [(262)],28.4,64,,
COc1nc2c(NCc3nccs3)nc(Cl)nc2n1CCO [(278)],6.37,141,,
Cc1cc2c(NCc3ccncc3)nc(Cl)nc2[nH]1 [(119)],11.2,114,,
Cc1cccc(Nc2ncnc3[nH]cnc23)c1 [(37)],36.5,,,
Nc1nc2c(NCc3ccco3)nc(Cl)nc2[nH]1 [(146)],9.41,154,,
CCCOc1nc2c(NCc3ccco3)nc(Cl)nc2n1CCO [(306)],0.7,247,,
COc1nc2c(NCc3ccco3)nc(Cl)nc2[nH]1 [(124)],2.41,180,,

SMILES,EC (maximum kinetin efficacy) [1] [µM],Emax [2] [%],Emax [3] [%],"ECk (RT-PCR) (determined by RT-PCR, footnote a Firefly inhibitor, footnote b Renilla interference) [µM]"
Fc1c[nH]c2nc(Cl)nc(NCc3nccs3)c12 [(116)],31.8,112,,
Clc1nc(NCc2nccs2)c2nc(OCc3nccs3)[nH]c2n1 [(329)],1.97,209,,
FCCn1ncc2c(NCc3ccco3)nc(Cl)nc21 [(214)],11.2,197,,
Clc1nc(NCc2nccs2)c2nc(OCc3ccccn3)[nH]c2n1 [(500)],3,141,,
COc1nc2c(NCc3cnccn3)nc(Cl)nc2[nH]1 [(374)],,34.2,,
c1cncc(CNc2ncnc3[nH]cnc23)c1 [(7)],,39,,
OCCn1cc(Cl)c2c(NCc3ccco3)nc(Cl)nc21 [(211)],7.73,204,,
FC(F)(F)c1cccc(CCNc2ncnc3[nH]cnc23)c1 [(5)],63.5,,,
Fc1nc(NCc2nccs2)c2cc[nH]c2n1 [(379)],,95,,
CNC(=O)c1nc2c(NCc3ccncn3)nc(Cl)nc2[nH]1 [(258)],15.8,165,,
Cc1cc2c(NCc3nccs3)nc(Cl)nc2[nH]1 [(147)],,80,,
Cc1[nH]c2nc(Cl)nc(NCc3ccncc3)c2c1F [(201)],,27,,
Cc1cc2c(NCc3ccco3)nc(Cl)nc2[nH]1 [(115)],5.92,174,,
CCCOc1nc2c(NCc3ccncc3)nc(Cl)nc2n1CCO [(339)],1.31,188,,
Cc1nc2c(NCc3ccco3)c(C(N)=O)cnc2[nH]1 [(171)],,48,,
CN(C)CCn1ccc2c(NCc3ccco3)nc(Cl)nc21 [(206)],,27,,
COCCOc1nc2c(NCc3ccncc3)nc(Cl)nc2[nH]1 [(290)],2.04,238,,
CCCOc1nc2c(NCc3ccncc3)nc(Cl)nc2[nH]1 [(282)],0.42,233,,
Clc1nc2c(c(NCc3ccco3)n1)COC2 [(503)],,27.2,,
Clc1cc(NCc2ccncn2)n2nccc2n1 [(330)],,20,,
OCCn1ncc2c(NCc3ccco3)nc(Cl)nc21 [(209)],12.2,176,,
Cc1ccccc1CCNc1ncnc2[nH]cnc12 [(32)],60,,,
OCCn1cc(F)c2c(NCc3ccncn3)nc(Cl)nc21 [(138)],12.8,174,,
CC(C)Oc1nc2c(NCc3ccco3)nc(Cl)nc2[nH]1 [(239)],2.6,147,,
Cc1cnccc1CNc1nc(Cl)nc2[nH]cnc12 [(268)],,19,,

SMILES,EC (maximum kinetin efficacy) [1] [µM],Emax [2] [%],Emax [3] [%],"ECk (RT-PCR) (determined by RT-PCR, footnote a Firefly inhibitor, footnote b Renilla interference) [µM]"
OCCNc1nc2c(NCc3ccco3)nc(Cl)nc2[nH]1 [(199)],,22,,
Clc1cccc(CNc2ncnc3[nH]cnc23)c1 [(415)],,10.9,,
O=C1CCCN1CCOc1nc2c(NCc3nccs3)nc(Cl)nc2[nH]1 [(402)],,21,,
FC(F)COc1nc2c(NCc3cscn3)nc(Cl)nc2[nH]1 [(395)],1.8,180,,
c1coc(CNc2ncnc3[nH]c(C4CC4)nc23)c1 [(96)],,65,,
OCc1cc2c(NCc3ccco3)nc(Cl)nc2[nH]1 [(170)],49.5,92,,
Fc1cccnc1CNc1nc(Cl)nc2[nH]ccc12 [(495)],,13.9,,
FC(F)(F)COc1nc2c(NCc3ccncc3)nc(Cl)nc2[nH]1 [(299)],1.3,216,,
CSc1nc2c(NCc3ccncn3)nc(Cl)nc2[nH]1 [(303)],1.51,243,,
Clc1nc(NCc2cccnn2)c2cc[nH]c2n1 [(174)],,37,,
Clc1nc(NCc2ccco2)c2cc[nH]c2n1 [(55)],1.71,173,,
CNC(=O)c1nc2c(NCc3ccncc3)nc(Cl)nc2[nH]1 [(250)],62.8,63,,
COCCOc1nc2c(NCc3ccco3)nc(Cl)nc2[nH]1 [(293)],1.78,169,,
Cc1cc(CNc2nc(Cl)nc3[nH]cnc23)ccn1 [(196)],,7,,
CNOc1nc2c(NCc3ccco3)nc(Cl)nc2[nH]1 [(280)],,25,,
FC1(F)CC(COc2nc3c(NCc4ccco4)nc(Cl)nc3[nH]2)C1 [(387)],0.33,238,,
Clc1nc(NCc2ccco2)c2ccn(C3CCOCC3)c2n1 [(182)],,20,,
Cn1cccc1CNc1nc(Cl)nc2[nH]ccc12 [(360)],,12.3,,
Clc1nc(NCc2cccs2)c2[nH]cnc2n1 [(456)],,52.3,,
Fc1nc(NCc2ccco2)c2nc[nH]c2n1 [(58)],17.9,155,,
CN(C)C(=O)Cn1ccc2c(NCc3ccco3)nc(Cl)nc21 [(153)],,20,,
Clc1nc(NCc2ccco2)c2nc(OC3CCC3)[nH]c2n1 [(259)],0.38,109,,
Clc1nc(NCc2ccno2)c2nc[nH]c2n1 [(175)],,29,,
Clc1nc(NCc2cc3ccccc3o2)c2cc[nH]c2n1 [(163)],,35,,

# — patent US11702417B2, “Compounds for improving mRNA splicing” (The General Hospital Corporation, priority 2015, dated 2023)
